Test results taken from ChEMBL document CHEMBL3351302, “Design, synthesis and biological evaluation of 4-anilinothieno[2,3-d]pyrimidine-based hydroxamic acid derivatives as novel histone deacetylase inhibitors” (Bioorg Med Chem, 2014).

How the values were obtained:
Histone deacetylase 1 = Histone deacetylase 1 (Homo sapiens, UniProt Q13547); assay: Inhibition of human recombinant full length HDAC1 using (Ac)-Lys-Tyr-Lys(-acetyl)-AMC substrate after 30 mins
[1] = Antiproliferative activity against human HCT116 cells after 72 hrs by WST8 assay; assay type: functional, cell-based; conditions: HCT-116, 72 h
[2] = target: T1, Protein deacetylase HDAC6 (Homo sapiens, UniProt Q9UBN7); assay: Inhibition of human recombinant full length HDAC6 using (Boc-Lys (-acetyl)-AMC substrate after 30 mins
T1 sequence (Q9UBN7 whole entry): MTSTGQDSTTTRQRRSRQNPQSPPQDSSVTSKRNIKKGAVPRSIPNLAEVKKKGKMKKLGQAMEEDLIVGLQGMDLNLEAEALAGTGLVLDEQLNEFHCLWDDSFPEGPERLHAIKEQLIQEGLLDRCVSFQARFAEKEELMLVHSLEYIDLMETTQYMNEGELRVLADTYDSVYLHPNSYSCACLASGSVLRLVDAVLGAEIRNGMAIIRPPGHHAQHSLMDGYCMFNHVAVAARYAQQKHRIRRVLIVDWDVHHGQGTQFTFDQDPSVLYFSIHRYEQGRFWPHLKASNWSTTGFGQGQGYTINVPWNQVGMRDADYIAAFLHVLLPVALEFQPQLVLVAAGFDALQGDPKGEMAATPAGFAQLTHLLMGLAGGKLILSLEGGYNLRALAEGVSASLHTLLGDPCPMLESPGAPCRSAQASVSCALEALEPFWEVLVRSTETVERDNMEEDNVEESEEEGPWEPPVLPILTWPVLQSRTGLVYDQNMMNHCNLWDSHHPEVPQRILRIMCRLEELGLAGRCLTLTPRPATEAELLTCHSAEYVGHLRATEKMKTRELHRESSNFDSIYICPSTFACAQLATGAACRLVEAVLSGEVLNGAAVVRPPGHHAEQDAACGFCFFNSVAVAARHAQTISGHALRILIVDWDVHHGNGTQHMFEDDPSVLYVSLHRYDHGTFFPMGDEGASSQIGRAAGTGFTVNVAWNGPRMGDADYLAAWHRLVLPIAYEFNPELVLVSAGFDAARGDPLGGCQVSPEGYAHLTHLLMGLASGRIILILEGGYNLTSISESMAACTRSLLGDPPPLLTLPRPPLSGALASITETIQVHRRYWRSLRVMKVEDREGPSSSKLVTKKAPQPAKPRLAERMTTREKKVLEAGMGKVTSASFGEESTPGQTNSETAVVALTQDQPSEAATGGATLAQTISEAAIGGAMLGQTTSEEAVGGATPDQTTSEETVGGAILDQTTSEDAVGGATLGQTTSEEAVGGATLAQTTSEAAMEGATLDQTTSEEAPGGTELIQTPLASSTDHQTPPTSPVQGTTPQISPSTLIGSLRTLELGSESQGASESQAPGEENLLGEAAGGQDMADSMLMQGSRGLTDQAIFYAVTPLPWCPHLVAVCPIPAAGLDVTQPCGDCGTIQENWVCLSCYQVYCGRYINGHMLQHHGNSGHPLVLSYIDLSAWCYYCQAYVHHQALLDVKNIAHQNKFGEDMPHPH

[3] = target: T2, Histone deacetylase (Homo sapiens) (UniProt Q13547+O15379+Q9UBN7+Q92769+Q9UQL6+Q8WUI4+Q9BY41+Q96DB2+P56524+Q9UKV0+Q969S8); assay: Inhibition of HDAC in human RPMI8226 cells assessed as increase in histone H3 acetylation after 24 hrs by Western blot analysis; assay type: cell-based; conditions: RPMI-8226
[4] = target: T2, Histone deacetylase (Homo sapiens); assay: Inhibition of HDAC in human RPMI8226 cells assessed as increase in alpha-tubulin acetylation after 24 hrs by Western blot analysis; assay type: cell-based; conditions: RPMI-8226
[5] = Antiproliferative activity against human RPMI8226 cells after 72 hrs by WST8 assay; assay type: functional, cell-based; conditions: RPMI-8226, 72 h
Histone deacetylase 3 = Histone deacetylase 3 (Homo sapiens, UniProt O15379); assay: Inhibition of human recombinant full length HDAC3 using (Ac)-Lys-Tyr-Lys(-acetyl)-AMC substrate after 30 mins
Chain of Histone deacetylase 3 (O15379 whole entry): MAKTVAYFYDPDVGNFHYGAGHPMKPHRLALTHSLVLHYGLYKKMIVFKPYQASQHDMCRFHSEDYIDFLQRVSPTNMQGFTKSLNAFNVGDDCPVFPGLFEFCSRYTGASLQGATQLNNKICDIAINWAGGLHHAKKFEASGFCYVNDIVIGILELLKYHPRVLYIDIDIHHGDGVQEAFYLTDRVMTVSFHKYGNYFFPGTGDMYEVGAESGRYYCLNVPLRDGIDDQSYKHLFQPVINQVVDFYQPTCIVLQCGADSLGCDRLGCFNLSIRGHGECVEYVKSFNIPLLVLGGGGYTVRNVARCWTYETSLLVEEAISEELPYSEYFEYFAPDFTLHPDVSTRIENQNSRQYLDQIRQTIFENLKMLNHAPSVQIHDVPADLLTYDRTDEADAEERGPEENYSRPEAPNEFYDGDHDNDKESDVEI

Chain of Histone deacetylase 1 (Q13547 whole entry): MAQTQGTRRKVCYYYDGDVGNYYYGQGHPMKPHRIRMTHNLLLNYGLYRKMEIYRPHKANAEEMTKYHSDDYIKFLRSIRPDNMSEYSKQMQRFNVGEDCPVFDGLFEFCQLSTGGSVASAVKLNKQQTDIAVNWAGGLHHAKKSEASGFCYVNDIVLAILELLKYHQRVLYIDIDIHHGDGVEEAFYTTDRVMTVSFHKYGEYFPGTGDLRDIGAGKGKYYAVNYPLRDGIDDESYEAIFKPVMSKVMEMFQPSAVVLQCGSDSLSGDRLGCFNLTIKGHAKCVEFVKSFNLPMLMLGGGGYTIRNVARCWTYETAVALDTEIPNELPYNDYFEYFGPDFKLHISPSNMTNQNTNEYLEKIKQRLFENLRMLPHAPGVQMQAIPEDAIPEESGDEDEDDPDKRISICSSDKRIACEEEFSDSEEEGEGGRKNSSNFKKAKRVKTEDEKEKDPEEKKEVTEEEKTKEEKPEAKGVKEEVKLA

Structure (SMILES)	IC50 (Histone deacetylase 1)	IC50 [2]	inhibition [3]	inhibition [4]	IC50 (Histone deacetylase 3)	IC50 [1]	IC50 [5]
O=C(CCCCCCC(=O)Nc1cc2c(Cl)ncnc2s1)NO	25.5 nM	15.1 nM	Dose-dependent effect	Dose-dependent effect	26.5 nM	2920 nM	2180 nM
Cc1ccc(Nc2ncnc3sc(NC(=O)CCCCCCC(=O)NO)cc23)cc1	2.01 nM	5.37 nM	Dose-dependent effect	Dose-dependent effect	2.92 nM	2340 nM	3840 nM
O=C(CCCCCCC(=O)Nc1cc2c(Nc3ccccc3)ncnc2s1)NO	1.9 nM	12 nM	Dose-dependent effect	Dose-dependent effect	3.47 nM	1820 nM	3790 nM
Cc1ccc(Nc2ncnc3sc(NC(=O)CCCCCC(=O)NO)cc23)cc1C	29.8 nM	16.9 nM			14.7 nM		
O=C(CCCCCC(=O)Nc1cc2c(Nc3ccc(Cl)c(C(F)(F)F)c3)ncnc2s1)NO	40.8 nM	30 nM			48.3 nM		
O=C(CCCCCCC(=O)Nc1cc2c(Nc3ccc(N4CCCCC4)c(F)c3)ncnc2s1)NO	5.39 nM	3.42 nM			8.19 nM	1440 nM	3280 nM
CCN(CC)c1ccc(Nc2ncnc3sc(NC(=O)CCCCCCC(=O)NO)cc23)cc1	32.9 nM	43.2 nM			39.7 nM	4440 nM	5950 nM
O=C(CCCCCCC(=O)Nc1cc2c(Nc3ccc(O[C@H]4CCOC4)c(Cl)c3)ncnc2s1)NO	2.97 nM	1.9 nM			3.58 nM	2240 nM	4200 nM
O=C(CCCCCC(=O)Nc1cc2c(Nc3ccccc3)ncnc2s1)NO	11.8 nM	27 nM			20.8 nM		
O=C(CCCCCCC(=O)Nc1cc2c(Nc3ccc(N4CCCC4)c(F)c3)ncnc2s1)NO	14.5 nM	9.28 nM			14.1 nM	4090 nM	4630 nM
O=C(CCCCCCC(=O)Nc1cc2c(Nc3ccc(Cl)c(C(F)(F)F)c3)ncnc2s1)NO	21.7 nM	11.5 nM			23.5 nM		
O=C(CCCCC(=O)Nc1cc2c(Nc3ccc(Cl)c(C(F)(F)F)c3)ncnc2s1)NO	218 nM				607 nM		
O=C(CCCCCCC(=O)Nc1cc2c(Nc3ccc(N4CCCC4)cc3)ncnc2s1)NO	13.9 nM	7.19 nM			14.1 nM	3740 nM	5420 nM
Cc1ccc(Nc2ncnc3sc(NC(=O)CCCCCC(=O)NO)cc23)cc1	14 nM	19.7 nM			9.33 nM		

More lines, main results first:

IC50 (Histone deacetylase 1)	IC50 [2]	inhibition [3]	inhibition [4]	IC50 (Histone deacetylase 3)	Structure (SMILES)	IC50 [1]	IC50 [5]
12.5 nM	5.58 nM			14.5 nM	O=C(CCCCCCC(=O)Nc1cc2c(Nc3ccc(Cl)cc3F)ncnc2s1)NO	1700 nM	3500 nM
10.1 nM	7.88 nM			16.9 nM	O=C(CCCCCCC(=O)Nc1cc2c(Nc3ccc(F)cc3F)ncnc2s1)NO		7490 nM
1.14 nM	11.4 nM	Dose-dependent effect	Dose-dependent effect	3.56 nM	Cc1ccc(Nc2ncnc3sc(NC(=O)CCCCCCC(=O)NO)cc23)cc1C	1610 nM	2390 nM
13.5 nM	8.87 nM			11.9 nM	O=C(CCCCCCC(=O)Nc1cc2c(Nc3ccc(Br)cc3F)ncnc2s1)NO		8120 nM
3.24 nM	8.58 nM			6.46 nM	O=C(CCCCCCC(=O)Nc1cc2c(Nc3cccc(Cl)c3)ncnc2s1)NO		4490 nM
13.4 nM	22 nM			17.9 nM	O=C(CCCCCCC(=O)Nc1cc2c(Nc3ccc(F)c(Cl)c3)ncnc2s1)NO		
4.57 nM	3.44 nM	Dose-dependent effect	Dose-dependent effect	3.52 nM	CCN(CC)c1ccc(Nc2ncnc3sc(NC(=O)CCCCCCC(=O)NO)cc23)cc1F	2550 nM	1410 nM
35.9 nM	24 nM			37.7 nM	O=C(CCCCCC(=O)Nc1cc2c(Nc3ccc(F)c(Cl)c3)ncnc2s1)NO		
4.51 nM	2.69 nM	Dose-dependent effect	Dose-dependent effect	3.22 nM	CN(C)c1ccc(Nc2ncnc3sc(NC(=O)CCCCCCC(=O)NO)cc23)cc1F	4030 nM	3490 nM
131 nM	569 nM			127 nM	O=C(CCCCC(=O)Nc1cc2c(Nc3ccc(F)c(Cl)c3)ncnc2s1)NO		
6.24 nM	6.55 nM			13.5 nM	O=C(CCCCCCC(=O)Nc1cc2c(Nc3ccc(I)cc3F)ncnc2s1)NO		
7.78 nM	8.46 nM			14.6 nM	O=C(CCCCCCC(=O)Nc1cc2c(Nc3cccc(Cl)c3F)ncnc2s1)NO		8170 nM
